From PubChem BioAssay (NCI)
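Here, GI50 denotes the concentration required for 50% inhibition of growth. The concentration for full growth arrest is given as TGI.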

Tests used:
Assay in all cases: NCI-60 cell line screen, 384-well format
786-0 renal = tested on: 786-0 renal
A498 renal = tested on: A498 renal
BT-549 breast = tested on: BT-549 breast
CAKI-1 renal = tested on: CAKI-1 renal
COLO 205 colon = tested on: COLO 205 colon
DU-145 prostate = tested on: DU-145 prostate
EKVX NSCLC = tested on: EKVX NSCLC
HCT-116 colon = tested on: HCT-116 colon
HL-60(TB) leukemia = tested on: HL-60(TB) leukemia
HOP-62 NSCLC = tested on: HOP-62 NSCLC
HOP-92 NSCLC = tested on: HOP-92 NSCLC
HT29 colon = tested on: HT29 colon
IGROV1 ovarian = tested on: IGROV1 ovarian
K-562 leukemia = tested on: K-562 leukemia
KM12 colon = tested on: KM12 colon
M14 melanoma = tested on: M14 melanoma
MALME-3M melanoma = tested on: MALME-3M melanoma
MDA-MB-231 breast = tested on: MDA-MB-231 breast
MDA-MB-435 melanoma = tested on: MDA-MB-435 melanoma
MDA-MB-468 breast = tested on: MDA-MB-468 breast
MOLT-4 leukemia = tested on: MOLT-4 leukemia
NCI-H226 lung = tested on: NCI-H226 lung
NCI-H23 lung = tested on: NCI-H23 lung
NCI-H460 NSCLC = tested on: NCI-H460 NSCLC
NCI-H522 lung = tested on: NCI-H522 lung
OVCAR-3 ovarian = tested on: OVCAR-3 ovarian
OVCAR-4 ovarian = tested on: OVCAR-4 ovarian
PC-3 prostate = tested on: PC-3 prostate
RXF 393 renal = tested on: RXF 393 renal
SF-268 CNS = tested on: SF-268 CNS
SF-539 CNS = tested on: SF-539 CNS
SK-MEL-2 melanoma = tested on: SK-MEL-2 melanoma
SK-MEL-28 melanoma = tested on: SK-MEL-28 melanoma
SK-OV-3 ovarian = tested on: SK-OV-3 ovarian
SN12C renal = tested on: SN12C renal
SNB-19 CNS = tested on: SNB-19 CNS
SW-620 colon = tested on: SW-620 colon
TK-10 renal = tested on: TK-10 renal
UACC-257 melanoma = tested on: UACC-257 melanoma
UACC-62 melanoma = tested on: UACC-62 melanoma
UO-31 renal = tested on: UO-31 renal

Structure (SMILES): COc1cc(N2CCC(N3CCN(C)CC3)CC2)ccc1Nc1ncc(Cl)c(Nc2ccccc2S(=O)(=O)C(C)C)n1
- GI50 ([…]-0 renal): 1010 nM
- TGI (786-0 renal): 2170 nM
- GI50 (A498 renal): 790 nM
- TGI (A498 renal): 2790 nM
- GI50 (BT-549 breast): 418 nM
- TGI (BT-549 breast): 1320 nM
- GI50 (CAKI-1 renal): 490 nM
- TGI (CAKI-1 renal): 1560 nM
- GI50 (COLO 205 colon): 51.8 nM
- TGI (COLO 205 colon): 232 nM
- GI50 (DU-145 prostate): 300 nM
- TGI (DU-145 prostate): 1630 nM
- GI50 (EKVX NSCLC): 48.7 nM
- TGI (EKVX NSCLC): 263 nM
- GI50 (HCT-116 colon): 308 nM
- TGI (HCT-116 colon): 1630 nM
- GI50 (HL-60(TB) leukemia): 36.1 nM
- TGI (HL-60(TB) leukemia): 187 nM
- GI50 (HOP-62 NSCLC): 356 nM
- TGI (HOP-62 NSCLC): 1350 nM
- GI50 (HOP-92 NSCLC): 318 nM
- TGI (HOP-92 NSCLC): 1310 nM
- GI50 (HT29 colon): 48.6 nM
- TGI (HT29 colon): 294 nM
- GI50 (IGROV1 ovarian): 283 nM
- TGI (IGROV1 ovarian): 1160 nM
- GI50 (K-562 leukemia): 404 nM
- TGI (K-562 leukemia): 1680 nM
- GI50 (KM12 colon): 319 nM
- TGI (KM12 colon): 1290 nM
- GI50 (M14 melanoma): 491 nM
- TGI (M14 melanoma): 1860 nM
- GI50 (MALME-3M melanoma): 494 nM
- TGI (MALME-3M melanoma): 1840 nM
- GI50 (MDA-MB-231 breast): 556 nM
- TGI (MDA-MB-231 breast): 1890 nM
- GI50 (MDA-MB-435 melanoma): 447 nM
- TGI (MDA-MB-435 melanoma): 1960 nM
- GI50 (MDA-MB-468 breast): 133 nM
- TGI (MDA-MB-468 breast): 315 nM
- GI50 (MOLT-4 leukemia): 202 nM
- TGI (MOLT-4 leukemia): 687 nM
- GI50 (NCI-H226 lung): 118 nM
- TGI (NCI-H226 lung): 648 nM
- GI50 (NCI-H23 lung): 228 nM
- TGI (NCI-H23 lung): 1390 nM
- GI50 (NCI-H460 NSCLC): 131 nM
- TGI (NCI-H460 NSCLC): 1070 nM
- GI50 (NCI-H522 lung): 367 nM
- TGI (NCI-H522 lung): 1490 nM
- GI50 (OVCAR-3 ovarian): 517 nM
- TGI (OVCAR-3 ovarian): 1780 nM
- GI50 (OVCAR-4 ovarian): 417 nM
- TGI (OVCAR-4 ovarian): 12200 nM
- GI50 (PC-3 prostate): 1030 nM
- TGI (PC-3 prostate): 2220 nM
- GI50 (RXF 393 renal): 294 nM
- TGI (RXF 393 renal): 952 nM
- GI50 (SF-268 CNS): 397 nM
- TGI (SF-268 CNS): 1510 nM
- GI50 (SF-539 CNS): 246 nM
- TGI (SF-539 CNS): 673 nM
- GI50 (SK-MEL-2 melanoma): 383 nM
- TGI (SK-MEL-2 melanoma): 1830 nM
- GI50 (SK-MEL-28 melanoma): 17800 nM
- TGI (SK-MEL-28 melanoma): 32300 nM
- GI50 (SK-OV-3 ovarian): 1110 nM
- TGI (SK-OV-3 ovarian): 2320 nM
- GI50 (SN12C renal): 385 nM
- TGI (SN12C renal): 1400 nM
- GI50 (SNB-19 CNS): 1220 nM
- TGI (SNB-19 CNS): 2520 nM
- GI50 (SW-620 colon): 218 nM
- TGI (SW-620 colon): 1180 nM
- GI50 (TK-10 renal): 379 nM
- TGI (TK-10 renal): 1510 nM
- GI50 (UACC-257 melanoma): 571 nM
- TGI (UACC-257 melanoma): 1950 nM
- GI50 (UACC-62 melanoma): 388 nM
- TGI (UACC-62 melanoma): 1690 nM
- GI50 (UO-31 renal): 929 nM
- TGI (UO-31 renal): 2140 nM
